Patent US20230337677A1, “ARYL AND PYRIDYL AMIDE PESTICIDES AND COMPOSITIONS THEREOF” (University of Florida Research Foundation, Incorporated, priority 2019, published 2023)

These molecules were tested on Aedes aegypti mosquitoes, insecticide-susceptible Orlando strain (assay: not given). Conditions: 100 μg/cm^2; 1 h; out of 16 females.
Format: in vivo
Method: The tubes as shown were held horizontally on the bench.
For assessing behavioral repellency (FIG. 1), Aedes aegypti mosquitoes were used from the insecticide-susceptible Orlando strain and the pyrethroid-resistant Puerto Rico strain. Sixteen female mosquitoes were transferred to a glass tube (12.5 cm long, 2.5 cm outer diameter) with the ends covered with netting. Each compound was dissolved in 1 mL of acetone and serial dilutions ranging from 30-0.01 μg/ml were made. Circular filter papers (5 cm^2) were saturated with 50 μL of each concentration and allowed 10 min for solvent evaporation. The filter papers were then placed in clear conical polypropylene caps and fixed to the end of the glass tubes. The netting prevented mosquito contact with the filter paper. The tubes were then aligned with a mark denoting the midline and the proportion of mosquitoes on the chemically treated side was scored for up to 60 min. At the end of the test, the tube was placed in a cage and the ability of the mosquitoes to fly out of the tube was assessed for 30 min. […] This post-test evaluated whether any non-responding mosquitoes (not repelled) resulted from intoxication or disorientation from the test chemical. For assessment of lethality, insects were held for 24 hr under constant exposure in glass tubes having treated filter papers.
Compounds were first screened at 100 μg/cm^2 for repellency and 24 h mortality.
For COCc1c(F)c(F)c(COC(=O)[C@@H]2[C@@H](C=C(Cl)Cl)C2(C)C)c(F)c1F [GMR146], the “knockdown in 1 hr repellency test (XXkd = number of insects incapacitated out of 16 females)” value was 15. With O=C(Nc1cc(C(F)(F)F)cc(C(F)(F)F)c1)C(F)(F)F [MTFI-3-1G] the “knockdown in 1 hr repellency test (XXkd = number of insects incapacitated out of 16 females)” value was 3.

Same assay, conditions: 1 h; (OR)
For O=C(Nc1cc(F)c(F)c(F)c1)C(F)(F)C(F)(F)F [GMR135], the “1 h Repellency EC50, μg/cm^2” value was 22.1 μg/cm^2. CCC(=O)Nc1cc(F)c(F)c(F)c1 [GMR143] was tested, and the “1 h Repellency EC50, μg/cm^2” value was 23 μg/cm^2. In the case of O=C(Nc1ccc(F)cc1)C(F)(F)C(F)(F)F [GMR189], the “1 h Repellency EC50, μg/cm^2” value is reported as 4.5 μg/cm^2. With O=C(CC1CC1)Nc1ccccc1C(F)(F)F [MTFI-5-5C] the “1 h Repellency EC50, μg/cm^2” value was 34 μg/cm^2.

Same assay, conditions: Table 3A
In the case of O=C(Nc1cc(F)c(F)c(F)c1)C(F)(F)C(F)(F)OC(F)(F)F [compound 51], the “1h EC50 (μg/cm^2)” value is reported as 3.09 μg/cm^2.

Same assay, conditions: Table 3A; Screened at μg/cm^2
For O=C(Nc1cc(F)c(F)c(F)c1)C(F)(F)C(F)(F)OC(F)(F)F [compound 51], the 1h % repellency was 100%.

Same assay, conditions: Table 3B; Screened at μg/cm^2
With CC(C)(C)c1cccc(NC(=O)CCl)c1 [compound 1] the 1h % repellency was 6%.

Same assay, conditions: screened at 100 μg/cm^2; 1 h; strain not given
For CCOC(=O)Nc1ccccc1C(F)(F)F [GMR020], the “1 h % Repellency, 100 μg/cm^2” value was 16%. In the case of C=CC(=O)Nc1ccccc1N [GMR022], the “1 h % Repellency, 100 μg/cm^2” value is reported as −8%. O/N=C(\Nc1cc(Cl)nc(C(F)(F)F)c1)C(F)(F)C(F)(F)C(F)(F)F [GMR105] was tested, and the “1 h % Repellency, 100 μg/cm^2” value was 24%. For O=C(Nc1ccccc1OC(F)(F)F)C(F)(F)C(F)(F)C(F)(F)F [GMR129], the “1 h % Repellency, 100 μg/cm^2” value was 34%. CCC(=O)Nc1c(Cl)cncc1Cl [GMR131] was tested, and the “1 h % Repellency, 100 μg/cm^2” value was −4%. For O=C(Nc1cc(F)c(F)c(F)c1)C(F)(F)C(F)(F)F [GMR135], the “1 h % Repellency, 100 μg/cm^2” value was 74%. For CC(C)CC(=O)Nc1cc(F)c(F)c(F)c1 [GMR141], the “1 h % Repellency, 100 μg/cm^2” value was 16%. In the case of CCC(=O)Nc1cc(F)c(F)c(F)c1 [GMR143], the “1 h % Repellency, 100 μg/cm^2” value is reported as 88%. With CCCC(=O)Nc1cc(F)c(F)c(F)c1 [GMR144] the “1 h % Repellency, 100 μg/cm^2” value was 62%. For CCCCCCCCCC(=O)Nc1ccccc1OC(F)(F)F [GMR184], the “1 h % Repellency, 100 μg/cm^2” value was −8%. With O=C(Nc1ccc(F)cc1)C(F)(F)C(F)(F)F [GMR189] the “1 h % Repellency, 100 μg/cm^2” value was 42%. O=C(CCl)Nc1cccc(C(F)(F)F)c1 [MTFI-2-2A] was tested, and the “1 h % Repellency, 100 μg/cm^2” value was 50%. C=CCCCC(=O)Nc1cc(C(F)(F)F)cc(C(F)(F)F)c1 [MTFI-3-1C] was tested, and the “1 h % Repellency, 100 μg/cm^2” value was 38%. For O=C(CCC1CCCCC1)Nc1cc(C(F)(F)F)cc(C(F)(F)F)c1 [MTFI-3-1D], the “1 h % Repellency, 100 μg/cm^2” value was 6%. With O=C(CCC1CCCCC1)Nc1ccccc1C(F)(F)F [MTFI-3-2F] the “1 h % Repellency, 100 μg/cm^2” value was 18%. With O=C(Nc1cc(F)c(F)c(F)c1F)C(F)(F)F [MTFI-5-4B] the “1 h % Repellency, 100 μg/cm^2” value was 82%. For O=C(CC1CC1)Nc1ccccc1C(F)(F)F [MTFI-5-5C], the “1 h % Repellency, 100 μg/cm^2” value was 82%.

What follows are molecules tested on Aedes aegypti strain Orlando (sensitive) (assay: Topical toxicity (24 hour mortality), Ae. aegypti Orlando). Conditions: topical application, 24 h mortality, female adults, susceptible Orlando strain.
Format: in vivo
Method: (§1) The Aedes aegypti strains Orlando (sensitive) as well as the Puerto Rico (PR, resistant to permethrin) were used. The Anopheles gambiae (G3 sensitive strain, as well as Akron kdr (Akdr) strain, resistant to pyrethroids were also assessed. The larvae were provided by the USDA, Gainesville Fl, and raised in a pan with tap water maintained at 28° C. Larvae were fed a ground liver and yeast mixture, and pupae were placed in emergence cages. Adults were held at 28° C. and provided with cotton balls soaked in 10% sugar water for rearing and for all bioassays.
(§2) Female adults from 3 to 6 days were used for the experiments. The drug was dissolved in ethanol and then applied with a micro-applicator on the thorax, between the legs: 200 nL of drug per female mosquito, with different concentrations of the drug; 10 mosquitos were treated together per concentration per replicate, and put together in a small container with free access to sweet water. Mortality, i.e. no visible movement, was assessed 24 hours after treatment. Every compound was assessed on at least 3 different cohorts of mosquitoes, and the LD50 values and slopes were determined with Probit analysis, corrected with Abbott's formula.
With O=C(Nc1ccccc1OC(F)(F)F)C(F)(F)C(F)(F)C(F)(F)F [GMR129] the “Ae. aegypti OR LD50” value was >6000 ng/mg. O=C(Nc1cc(F)c(F)c(F)c1)C(F)(F)C(F)(F)F [GMR135] was tested, and the “Ae. aegypti OR LD50” value was 1792 ng/mg.

What follows are molecules tested on Anopheles gambiae G3 sensitive strain (assay: Topical toxicity (24 hour mortality), An. gambiae G3). Conditions: topical application, 24 h mortality, female adults, susceptible strain G3.
Format: in vivo
Method: as §1, §2
With O=C(Nc1ccccc1OC(F)(F)F)C(F)(F)C(F)(F)C(F)(F)F [GMR129] the “An. gambiae G3 LD50” value was >1000 ng/mg.

These molecules were tested on Anopheles gambiae Akron kdr (Akdr) strain, resistant to pyrethroids (assay: Topical toxicity (24 hour mortality), An. gambiae Akdr). Conditions: topical application, 24 h mortality, female adults, pyrethroid-resistant Akdr strain.
Format: in vivo
Method: as §1, §2
With O=C(Nc1ccccc1OC(F)(F)F)C(F)(F)C(F)(F)C(F)(F)F [GMR129] the “An. gambiae AKDR LD50” value was ~1000 ng/mg.

The molecules below were run on Aedes aegypti mosquitoes, insecticide-susceptible Orlando strain (assay: not given). Conditions: 24 h; LC50 (OR).
With O=C(Nc1cc(F)c(F)c(F)c1)C(F)(F)C(F)(F)F [GMR135] the “24 h LC50, μg/cm^2” value was 21.6 μg/cm^2. CCC(=O)Nc1cc(F)c(F)c(F)c1 [GMR143] was tested, and the “24 h LC50, μg/cm^2” value was 95 μg/cm^2. O=C(Nc1ccc(F)cc1)C(F)(F)C(F)(F)F [GMR189] was tested, and the “24 h LC50, μg/cm^2” value was 35.3 μg/cm^2.

Same assay, conditions: Table 3A
In the case of O=C(Nc1cc(F)c(F)c(F)c1)C(F)(F)C(F)(F)OC(F)(F)F [compound 51], the “24 h LC50, μg/cm^2” value is reported as 14.94 μg/cm^2.

Same assay, conditions: Table 3A; Screened at μg/cm^2
With O=C(Nc1cc(F)c(F)c(F)c1)C(F)(F)C(F)(F)OC(F)(F)F [compound 51] the 24h % mortality was 100%.

Same assay, conditions: Table 3B; Screened at μg/cm^2
For CC(C)(C)c1cccc(NC(=O)CCl)c1 [compound 1], the 24h % mortality was 0%.

Same assay, conditions: in vivo
COCc1c(F)c(F)c(COC(=O)[C@@H]2[C@@H](C=C(Cl)Cl)C2(C)C)c(F)c1F [GMR146] was tested, and the “24 h % Mortality, 100 μg/cm^2” value was 100% and the “24 h LC50, μg/cm^2” value was 1 μg/cm^2. O=C(Nc1cc(C(F)(F)F)cc(C(F)(F)F)c1)C(F)(F)F [MTFI-3-1G] was tested, and the “24 h % Mortality, 100 μg/cm^2” value was 100% and the “24 h LC50, μg/cm^2” value was 16 μg/cm^2.

Same assay, conditions: screened at 100 μg/cm^2; 24 h; strain not given
CCOC(=O)Nc1ccccc1C(F)(F)F [GMR020] was tested, and the “24 h % Mortality, 100 μg/cm^2” value was 9%. In the case of C=CC(=O)Nc1ccccc1N [GMR022], the “24 h % Mortality, 100 μg/cm^2” value is reported as 16%. In the case of O/N=C(\Nc1cc(Cl)nc(C(F)(F)F)c1)C(F)(F)C(F)(F)C(F)(F)F [GMR105], the “24 h % Mortality, 100 μg/cm^2” value is reported as 21%. For CCC(=O)Nc1c(Cl)cncc1Cl [GMR131], the “24 h % Mortality, 100 μg/cm^2” value was 6%. O=C(Nc1cc(F)c(F)c(F)c1)C(F)(F)C(F)(F)F [GMR135] was tested, and the “24 h % Mortality, 100 μg/cm^2” value was 100%. In the case of CC(C)CC(=O)Nc1cc(F)c(F)c(F)c1 [GMR141], the “24 h % Mortality, 100 μg/cm^2” value is reported as 19%. In the case of CCC(=O)Nc1cc(F)c(F)c(F)c1 [GMR143], the “24 h % Mortality, 100 μg/cm^2” value is reported as 53%. With CCCC(=O)Nc1cc(F)c(F)c(F)c1 [GMR144] the “24 h % Mortality, 100 μg/cm^2” value was 38%. In the case of CCCCCCCCCC(=O)Nc1ccccc1OC(F)(F)F [GMR184], the “24 h % Mortality, 100 μg/cm^2” value is reported as 2%. With O=C(Nc1ccc(F)cc1)C(F)(F)C(F)(F)F [GMR189] the “24 h % Mortality, 100 μg/cm^2” value was 94%. With O=C(CCl)Nc1cccc(C(F)(F)F)c1 [MTFI-2-2A] the “24 h % Mortality, 100 μg/cm^2” value was 3%. In the case of C=CCCCC(=O)Nc1cc(C(F)(F)F)cc(C(F)(F)F)c1 [MTFI-3-1C], the “24 h % Mortality, 100 μg/cm^2” value is reported as 0%. For O=C(CCC1CCCCC1)Nc1cc(C(F)(F)F)cc(C(F)(F)F)c1 [MTFI-3-1D], the “24 h % Mortality, 100 μg/cm^2” value was 7%. In the case of O=C(CCC1CCCCC1)Nc1ccccc1C(F)(F)F [MTFI-3-2F], the “24 h % Mortality, 100 μg/cm^2” value is reported as 25%. O=C(Nc1cc(F)c(F)c(F)c1F)C(F)(F)F [MTFI-5-4B] was tested, and the “24 h % Mortality, 100 μg/cm^2” value was 0%. With O=C(CC1CC1)Nc1ccccc1C(F)(F)F [MTFI-5-5C] the “24 h % Mortality, 100 μg/cm^2” value was 0%.
